Measurements from PubChem BioAssay AID1259411 (Chemical Carcinogenesis Research Information System (CCRIS), 2018).
Calls of active or inactive are those of the source. The rule behind the calls is not given here.

Test system: rodent carcinogenicity bioassays, tumor incidence
Experiment: CCRIS carcinogenicity studies
How it was run: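 NCI-built, expert-reviewed records of carcinogenicity and related test outcomes (mutagenicity, tumor promotion/inhibition) compiled from published and report sources, historical span 1985-2011, not updated.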

## CC(COc1ccc(C(C)(C)C)cc1)OS(=O)OCCCl (stereo not drawn)
Species: DOG, Strain/Sex: MONGREL/MALE,FEMALE, Route: ORAL, Dose: 0, 500, 828-1420 PPM IN DIET FOR 3.5 YR, Dose: 0, 500, 828-1420 PPM IN DIET FOR 3.5 YR, Tumor Site: Type of Lesion: BILE DUCT: ADENOCARCINOMA, GALL BLADDER: ADENOCARCINOMA
  carcinogen call: active; positive
Species: MOUSE, Strain/Sex: B6C3F1/MALE,FEMALE, Route: GAVAGE/ORAL, Dose: 464 MG/KG FROM D 7-28 OF LIFE THEN 1112 PPM IN DIET, Tumor Site: Type of Lesion: LIVER: HEPATOMA
  carcinogen call: active; positive
Species: RAT, Strain/Sex: WISTAR/MALE,FEMALE, Route: ORAL, Dose: 500, 1580, 5000 PPM IN DIET FOR 2 YR, Dose: 500, 1580, 5000 PPM IN DIET FOR 2 YR, Tumor Site: Type of Lesion: LIVER: HEPATOMA, CHOLANGIOMA
  carcinogen call: active; positive

## CC(=O)CN(N=O)C(=O)NCCCl
Species: RAT, Strain/Sex: F344/FEMALE, Route: GAVAGE, Dose: 0, 11.5 MG/ML IN CORN OIL/ETHYL ACETATE (2:1) 2/WK FOR 30 WK (STUDY DURATION: LIFETIME), Tumor Site: Type of Lesion: LIVER: TUMOR
  carcinogen call: active; positive
Species: RAT, Strain/Sex: F344/FEMALE, Route: ORAL, Dose: 0, 46 MG/L IN DRINKING WATER 5 D/WK FOR 30 WK (STUDY DURATION: LIFETIME)
  carcinogen call: inactive; negative
Species: RAT, Strain/Sex: F344/MALE, Route: GAVAGE, Dose: 0, 11.5 MG/ML IN CORN OIL/ETHYL ACETATE (2:1) 2/WK FOR 30 WK (STUDY DURATION: LIFETIME), Tumor Site: Type of Lesion: NERVOUS SYSTEM: TUMOR, SMALL INTESTINE: TUMOR
  carcinogen call: active; positive
Species: RAT, Strain/Sex: F344/MALE, Route: ORAL, Dose: 0, 46 MG/L IN DRINKING WATER 5 D/WK FOR 30 WK (STUDY DURATION: LIFETIME), Tumor Site: Type of Lesion: LUNG: TUMOR, SKIN: TUMOR
  carcinogen call: active; positive

## Cc1cccc(Nc2cc(Cl)nc(SCC(=O)O)n2)c1C
Species: MOUSE, Strain/Sex: STRAIN-CS/MALE, Route: ORAL, Dose: 0.1% (W/W) IN DIET FOR 6 MO THEN 0.05% IN DIET FOR 8.5 MO, Tumor Site: Type of Lesion: LIVER: HEPATOCELLULAR CARCINOMA
  carcinogen call: active; positive
Species: RAT, Strain/Sex: CD-1/MALE, Route: ORAL, Dose: 0, 50 PPM IN DIET FOR 43 WK FOLLOWED BY 25 PPM IN FEED FOR 61 WK (STUDY DURATION: 2 YR), Tumor Site: Type of Lesion: LIVER: ADENOMA, ADENOMA OR CARCINOMA, TESTES: LEYDIG CELL ADENOMA, PANCREAS: ACINAR CELL ADENOMA OR CARCINOMA, Tumor Site: Type of Lesion: LIVER: ADENOMA, ADENOMA OR CARCINOMA, TESTES: LEYDIG CELL ADENOMA, PANCREAS: ACINAR CELL ADENOMA OR CARCINOMA
  carcinogen call: active; positive
Species: RAT, Strain/Sex: F344/MALE, Route: ORAL, Dose: 0, 0.05, 0.10% IN DIET STARTED AT 2 MO OF AGE FOR STUDY DURATION (STUDY DURATION: 22 WK), Dose: 0, 0.05, 0.10% IN DIET STARTED AT 2 MO OF AGE FOR STUDY DURATION (STUDY DURATION: 22 WK), Tumor Site: Type of Lesion: LIVER: HEPATOCELLULAR CARCINOMA, HEPATOCELLULAR ADENOMA
  carcinogen call: active; positive
Species: RAT, Strain/Sex: F344/MALE, Route: ORAL, Dose: 0.00, 0.05, 0.10% IN DIET STARTED AT 15 MO OF AGE FOR STUDY DURATION (STUDY DURATION: 22 WK), Dose: 0.00, 0.05, 0.10% IN DIET STARTED AT 15 MO OF AGE FOR STUDY DURATION (STUDY DURATION: 22 WK), Tumor Site: Type of Lesion: LIVER: HEPATOCELLULAR CARCINOMA, HEPATOCELLULAR ADENOMA
  carcinogen call: active; positive
Species: RAT, Strain/Sex: F344/MALE, Route: ORAL, Dose: 0, 0.1% IN DIET FOR 22 WK (STUDY DURATION: 22 WK)
  carcinogen call: inactive; negative
Species: RAT, Strain/Sex: F344/MALE, Route: ORAL, Dose: 0, 0.1% IN DIET FOR 22 WK FOLLOWED BY BASAL DIET UNTIL TERMINATION AT 37, 52, OR 104 WK, RESPECTIVELY (STUDY DURATION: 3
  carcinogen call: inactive; negative
Species: RAT, Strain/Sex: F344/MALE, Route: ORAL, Dose: 0, 0.1% IN DIET FOR 37 WK (STUDY DURATION: 37 WK), Tumor Site: Type of Lesion: LIVER: HEPATOCELLULAR ADENOMA
  carcinogen call: active; positive
Species: RAT, Strain/Sex: F344/MALE, Route: ORAL, Dose: 0, 0.1% IN DIET FOR 37 WK FOLLOWED BY BASAL DIET UNTIL TERMINATION AT 52 OR 104 WK (STUDY DURATION: 52 OR 104 WK)
  carcinogen call: inactive; negative
Species: RAT, Strain/Sex: F344/MALE, Route: ORAL, Dose: 0, 0.1% IN DIET FOR 52 WK (STUDY DURATION: 52 WK), Tumor Site: Type of Lesion: LIVER: HEPATOCELLULAR ADENOMA, HEPATOCELLULAR CARCINOMA
  carcinogen call: active; positive
Species: RAT, Strain/Sex: F344/MALE, Route: ORAL, Dose: 0, 0.1% IN DIET FOR 52 WK FOLLOWED BY BASAL DIET UNTIL TERMINATION AT 104 WK (STUDY DURATION: 104 WK), Tumor Site: Type of Lesion: LIVER: HEPATOCELLULAR ADENOMA OR CARCINOMA
  carcinogen call: active; positive
Species: RAT, Strain/Sex: F344/MALE, Route: ORAL, Dose: 0, 0.1% IN DIET FOR 78 WK (STUDY DURATION: 78 WK), Tumor Site: Type of Lesion: LIVER: NEOPLASM
  carcinogen call: active; positive
Species: RAT, Strain/Sex: F344/MALE, Route: ORAL, Dose: 0.1% (W/W) IN DIET FOR 16 MO, Tumor Site: Type of Lesion: LIVER: HEPATOCELLULAR CARCINOMA
  carcinogen call: active; positive
Species: RAT, Strain/Sex: F344/MALE, Route: ORAL, Dose: 0.1% IN DIET FOR 11 WK FOLLOWED BY CONTROL DIET FOR DURATION OF STUDY (STUDY DURATION: 56 WK)
  carcinogen call: inactive; negative
Species: RAT, Strain/Sex: F344/MALE, Route: ORAL, Dose: 0.1% IN DIET FOR 43 WK (STUDY DURATION: 56 WK), Tumor Site: Type of Lesion: LIVER: HEPATOCELLULAR CARCINOMA
  carcinogen call: active; positive
Species: RAT, Strain/Sex: F344/MALE, Route: ORAL, Dose: 0.1% IN DIET FOR 54 WK (STUDY DURATION: 56 WK), Tumor Site: Type of Lesion: LIVER: HEPATOCELLULAR CARCINOMA
  carcinogen call: active; positive
Species: RAT, Strain/Sex: F344/MALE, Route: ORAL, Dose: 0.2% (W/W) IN DIET FOR 65 WK, Tumor Site: Type of Lesion: LIVER: HEPATOCELLULAR CARCINOMA
  carcinogen call: active; positive
